Assay results reported in patent EP0221541A2, “Quinolonecarboxylic acid derivatives and their preparation” (KYORIN PHARMACEUTICAL CO., LTD., priority 1985, dated 1987).
Converted amounts (≈) assume the structure as drawn. Where a name gives a salt, the structure may show the parent alone. Read-outs that look alike come from different tables or passages of the source.

Legend:
Format in all cases: cell-based
E. coli ATCC 10536 = experiment: MIC, antibacterial spectrum (aerobic bacteria); conditions: Escherichia coli, ATCC10536; E. coli ATCC 10536, Gram -, 10^6 cells/ml, aerobic; read-out: MIC
[1] = test system: Klebsiella pneumoniae KY(GN)6445; experiment: MIC, antibacterial spectrum (aerobic bacteria); conditions: Klebsiella pneumoniae KY(GN)6445, Gram -, 10^6 cells/ml, aerobic; read-out: MIC
Pst. micros UPI 5464-1 = experiment: MIC, antibacterial spectrum (anaerobic bacteria); conditions: Parvimonas micra, UPI54641, Pst. micros UPI 5464-1, Gram +, 10^6 cells/ml
[2] = test system: Morganella morganii IID 602; experiment: MIC, antibacterial spectrum (aerobic bacteria); conditions: IID602, Morganella morganii IID 602, Gram -, 10^6 cells/ml
K. pneumoniae 1-220S = experiment: MIC, antibacterial spectrum (aerobic bacteria); conditions: Klebsiella pneumoniae, 1220S; K. pneumoniae 1-220S, Gram -, 10^6 cells/ml, aerobic; read-out: MIC
[3] = test system: Veillonella parvula KYA 10790; experiment: MIC, antibacterial spectrum (anaerobic bacteria); conditions: KYA10790, Veillonella parvula KYA 10790, Gram -, 10^6 cells/ml
S. pyogenes IID 692 = experiment: MIC, antibacterial spectrum (aerobic bacteria); conditions: Streptococcus pyogenes, IID692; S. pyogenes IID 692, Gram +, 10^6 cells/ml, aerobic; read-out: MIC
[4] = test system: Citrobacter freundii IID 976; experiment: MIC, antibacterial spectrum (aerobic bacteria); conditions: IID976; Citrobacter freundii IID 976, Gram -, 10^6 cells/ml, aerobic; read-out: MIC
P. aeruginosa IID 1210 = experiment: MIC, antibacterial spectrum (aerobic bacteria); conditions: Pseudomonas aeruginosa, IID1210; P. aeruginosa IID 1210, Gram -, 10^6 cells/ml, aerobic; read-out: MIC
[5] = test system: S. pyogenes IID 689 (S-8); experiment: MIC, antibacterial spectrum (aerobic bacteria); conditions: Streptococcus pyogenes, IID689; S. pyogenes IID 689 (S-8), Gram +, 10^6 cells/ml, aerobic; read-out: MIC
[6] = test system: Bacillus subtilis PCI 219; experiment: MIC, antibacterial spectrum (aerobic bacteria); conditions: PCI219; Bacillus subtilis PCI 219, Gram +, 10^6 cells/ml, aerobic; read-out: MIC
[7] = test system: Escherichia coli NIHJ JC-2; experiment: MIC, antibacterial spectrum (aerobic bacteria); conditions: NIHJJC2, Escherichia coli NIHJ JC-2, Gram -, 10^6 cells/ml
E. coli ML 4707 = experiment: MIC, antibacterial spectrum (aerobic bacteria); conditions: Escherichia coli, ML4707; E. coli ML 4707, Gram -, 10^6 cells/ml, aerobic; read-out: MIC
P. mirabilis IID 994 = experiment: MIC, antibacterial spectrum (aerobic bacteria); conditions: Proteus mirabilis, IID994; P. mirabilis IID 994, Gram -, 10^6 cells/ml, aerobic; read-out: MIC
[8] = test system: Proteus vulgaris IFO 3167; experiment: MIC, antibacterial spectrum (aerobic bacteria); conditions: IFO3167; Proteus vulgaris IFO 3167, Gram -, 10^6 cells/ml, aerobic; read-out: MIC
[9] = test system: Peptococcus magnus KY 017; experiment: MIC, antibacterial spectrum (anaerobic bacteria); conditions: Finegoldia magna, KY017; Peptococcus magnus KY 017, Gram +, 10^6 cells/ml, anaerobic; read-out: MIC
[10] = test system: Salmonella enteritidis IID 604; experiment: MIC, antibacterial spectrum (aerobic bacteria); conditions: Salmonella enterica; Salmonella enteritidis IID 604, Gram -, 10^6 cells/ml, aerobic; read-out: MIC
[11] = test system: B. thetaiotaomicron (0661); experiment: MIC, antibacterial spectrum (anaerobic bacteria); conditions: Bacteroides thetaiotaomicron; B. thetaiotaomicron (0661), Gram -, 10^6 cells/ml, anaerobic; read-out: MIC
B. fragilis 0558 = experiment: MIC, antibacterial spectrum (anaerobic bacteria); conditions: Bacteroides fragilis; B. fragilis 0558, Gram -, 10^6 cells/ml, anaerobic; read-out: MIC
[12] = test system: S. aureus IID 670 (Terajima); experiment: MIC, antibacterial spectrum (aerobic bacteria); conditions: Staphylococcus aureus, IID670; S. aureus IID 670 (Terajima), Gram +, 10^6 cells/ml, aerobic; read-out: MIC
S. epidermidis IID 866 = experiment: MIC, antibacterial spectrum (aerobic bacteria); conditions: Staphylococcus epidermidis, IID866; S. epidermidis IID 866, Gram +, 10^6 cells/ml, aerobic; read-out: MIC
[13] = test system: Yersinia enterocolitica IID 981; experiment: MIC, antibacterial spectrum (aerobic bacteria); conditions: IID981; Yersinia enterocolitica IID 981, Gram -, 10^6 cells/ml, aerobic; read-out: MIC
[14] = test system: Eubacterium lentum GAI 5242; experiment: MIC, antibacterial spectrum (anaerobic bacteria); conditions: Eggerthella lenta, GAI5242; Eubacterium lentum GAI 5242, Gram +, 10^6 cells/ml, anaerobic; read-out: MIC
[15] = test system: Pseudomonas aeruginosa V-1; experiment: MIC, antibacterial spectrum (aerobic bacteria); conditions: V1
E. faecalis IID 682 = experiment: MIC, antibacterial spectrum (aerobic bacteria); conditions: Enterococcus faecalis, IID682; E. faecalis IID 682, Gram +, 10^6 cells/ml, aerobic; read-out: MIC
[16] = test system: Enterobacter cloacae IID 977; experiment: MIC, antibacterial spectrum (aerobic bacteria); conditions: IID977
B. fragilis 25285 = experiment: MIC, antibacterial spectrum (anaerobic bacteria); conditions: Bacteroides fragilis; B. fragilis 25285, Gram -, 10^6 cells/ml, anaerobic; read-out: MIC
[17] = test system: Staphylococcus aureus 209 P; experiment: MIC, antibacterial spectrum (aerobic bacteria); conditions: Staphylococcus aureus 209 P, Gram +, 10^6 cells/ml, aerobic; read-out: MIC
P. aeruginosa IFO 12689 = experiment: MIC, antibacterial spectrum (aerobic bacteria); conditions: Pseudomonas aeruginosa, IFO12689; P. aeruginosa IFO 12689, Gram -, 10^6 cells/ml, aerobic; read-out: MIC
[18] = Pseudomonas aeruginosa V-1, Gram -, 10^6 cells/ml, aerobic, read-out: MIC
[19] = Enterobacter cloacae IID 977, Gram -, 10^6 cells/ml, aerobic, read-out: MIC

Compound | MIC (E. coli ATCC 10536) [µg/mL] | MIC [1] [µg/mL] | MIC (Pst. micros UPI 5464-1) [µg/mL] | MIC [2] [µg/mL] | MIC (K. pneumoniae 1-220S) [µg/mL] | MIC [3] [µg/mL] | MIC (S. pyogenes IID 692) [µg/mL] | MIC [4] [µg/mL] | MIC (P. aeruginosa IID 1210) [µg/mL] | MIC [5] [µg/mL] | MIC [6] [µg/mL] | MIC [7] [µg/mL] | MIC (E. coli ML 4707) [µg/mL] | MIC (P. mirabilis IID 994) [µg/mL] | MIC [8] [µg/mL] | MIC [9] [µg/mL] | MIC [10] [µg/mL] | MIC [11] [µg/mL] | MIC (B. fragilis 0558) [µg/mL] | MIC [12] [µg/mL] | also measured
O=C(O)c1cn(C2CC2)c2c(F)c(N3CCC(CNCCO)C3)c(F)cc2c1=O (stereo not drawn) [Exp. 1, 1-Cyclopropyl-6,8-difluoro-1,4-dihydro-7-[3-(2-hydroxyethylaminomethyl)-1-pyrrolidinyl]-4-oxo-3-quinolinecarboxylic acid] | 0.05 (≈ 0.123 µM) | 0.05 (≈ 0.123 µM) | 0.39 (≈ 0.957 µM) | 0.39 (≈ 0.957 µM) | 0.2 (≈ 0.491 µM) | 0.39 (≈ 0.957 µM) | 0.05 (≈ 0.123 µM) | 0.05 (≈ 0.123 µM) | 1.56 (≈ 3.83 µM) | 0.025 (≈ 0.0614 µM) | 0.0125 (≈ 0.0307 µM) | 0.025 (≈ 0.0614 µM) | 0.05 (≈ 0.123 µM) | 0.05 (≈ 0.123 µM) | 0.05 (≈ 0.123 µM) | ≤ 0.05 | 0.1 (≈ 0.245 µM) | 3.13 (≈ 7.68 µM) | 0.78 (≈ 1.91 µM) | 0.05 (≈ 0.123 µM) | MIC (S. epidermidis IID 866): 0.025 µg/mL (≈ 0.0614 µM); MIC [13]: 0.2 µg/mL (≈ 0.491 µM); MIC [14]: 0.78 µg/mL (≈ 1.91 µM); MIC [15, 18]: 0.78 µg/mL (≈ 1.91 µM); MIC (E. faecalis IID 682): 0.1 µg/mL (≈ 0.245 µM); MIC [16, 19]: 0.2 µg/mL (≈ 0.491 µM); MIC (B. fragilis 25285): 1.56 µg/mL (≈ 3.83 µM); MIC [17]: 0.05 µg/mL (≈ 0.123 µM); MIC (P. aeruginosa IFO 12689): 1.56 µg/mL (≈ 3.83 µM)
O=C(O)c1cn(C2CC2)c2c(Cl)c(N3CCC(CNCCO)C3)c(F)cc2c1=O (stereo not drawn) [Exp. 3, 8-Chloro-1-cyclopropyl-6-fluoro-1,4-dihydro-7-(3-(2-hydroxyethylaminomethyl)-1-pyrrolidinyl]-4-oxo-3-quinolinecarboxylic acid] | 0.025 (≈ 0.059 µM) | 0.05 (≈ 0.118 µM) | 0.1 (≈ 0.236 µM) | 0.39 (≈ 0.92 µM) | 0.1 (≈ 0.236 µM) | 0.1 (≈ 0.236 µM) | 0.0125 (≈ 0.0295 µM) | 0.05 (≈ 0.118 µM) | 1.56 (≈ 3.68 µM) | 0.0125 (≈ 0.0295 µM) | 0.0125 (≈ 0.0295 µM) | 0.0125 (≈ 0.0295 µM) | 0.05 (≈ 0.118 µM) | 0.05 (≈ 0.118 µM) | 0.025 (≈ 0.059 µM) | 0.05 (≈ 0.118 µM) | 0.1 (≈ 0.236 µM) | 1.56 (≈ 3.68 µM) | 0.2 (≈ 0.472 µM) | 0.025 (≈ 0.059 µM) | MIC (S. epidermidis IID 866): 0.0125 µg/mL (≈ 0.0295 µM); MIC [13]: 0.1 µg/mL (≈ 0.236 µM); MIC [14]: 0.2 µg/mL (≈ 0.472 µM); MIC [15, 18]: 0.2 µg/mL (≈ 0.472 µM); MIC (E. faecalis IID 682): 0.1 µg/mL (≈ 0.236 µM); MIC [16, 19]: 0.1 µg/mL (≈ 0.236 µM); MIC (B. fragilis 25285): 0.2 µg/mL (≈ 0.472 µM); MIC [17]: 0.0125 µg/mL (≈ 0.0295 µM); MIC (P. aeruginosa IFO 12689): 1.56 µg/mL (≈ 3.68 µM)
O=C(O)c1cn(C2CC2)c2cc(N3CCC(CNCCO)C3)c(F)cc2c1=O (stereo not drawn) [Exp. 2, l-Cyclopropyl-6-fluoro-l,4-dihydro-7-[3-(2-hydroxyethylaminomethyl)-l-pyrrolidinyl]-4-oxo-3-quinolinecarboxylic acid hydrochloride] | 0.1 | 0.39 | 3.13 | 3.13 | 0.78 | 3.13 | 0.1 | 0.39 | 6.25 | 0.1 | ≤ 0.05 | 0.1 | 0.2 | 0.39 | 0.2 | 0.2 | 0.39 | > 100 | 50 | 0.2 | MIC (S. epidermidis IID 866): 0.1 µg/mL; MIC [13]: 0.78 µg/mL; MIC [14]: 3.13 µg/mL; MIC ([15]; Pseudomonas aeruginosa): 1.56 µg/mL; MIC (E. faecalis IID 682): 0.78 µg/mL; MIC ([16]; Enterobacter cloacae): 1.56 µg/mL; MIC (B. fragilis 25285): 50 µg/mL; MIC [17]: 0.2 µg/mL; MIC (P. aeruginosa IFO 12689): 6.25 µg/mL
